Key:
[1] = molecular target: full-length human HPK1 (MAP4K1) (Homo sapiens (Human), UniProt Q92918); assay: HPK1 Kinase Assay (Biochemical Assay), ADP-Glo; conditions: GST-HPK1 3.2 nM, 10 μM ATP, MBP substrate, read-out: HPK1 enzymatic IC50
Source text: HPK1 Kinase Assay (Biochemical Assay).
A recombinant fusion protein consisting of full-length human HPK1 (MAP4K1) with an N-terminal Glutatione S-transferase (GST) tag was produced in insect cells Sf21 using the baculovirus expression system. GST-HPK1 protein was purified from cell lysates by glutathione Sepharose affinity chromatography. The assay is run in three continuous steps: 1) the HPK1 enzymatic kinase reaction, 2) an ATP depletion, and 3) the ADP detection, the steps 2 and 3 are performed with ADP-Glo™ Kinase Assay kit from Promega (V9101). Test compounds were prepared by 10-point serial dilution in dimethyl sulfoxide (DMSO) and 100 nL of each dilution was spotted onto a 384-well Optiplate (Perkin Elmer and Cat #6007299) by Labcyte Echo. 5 μL kinase reaction buffer (0.02% Brij-35, 2 mM DTT, 50 mM HEPES pH 7.5, MgCl2 10 mM, BSA 0.01% and O-glycerophosphate 12.5 mM) containing HPK1 (3.2 nM) enzyme was transferred to each well and incubated for 15 minutes at room temperature at 60% humidity. The enzymatic reaction was started by adding 5 μl of Start-Mix (10 μM ATP and 3.235 μM MBP). After 120 minutes, the reaction was stopped by adding 5 μL of ADP-Glo reagent (Promega, V9101) and incubating for 40 min. in the dark at 23° C. To determine the level of ADP, 10 μl ADP-Glo Detection solution was added and incubated for 1 hour at 23° C. in the dark. The plate was transferred to a Perkin Elmer EnVision (2104 Multilabel Reader) for luminescence detection and percent inhibition activity and IC50 value were determined using Genedata Screener.

[2] = molecular target: HPK1 (SLP76 phosphorylation at Ser376 in Jurkat and EL-4 cells) (Homo sapiens, UniProt Q92918); type: cell-based; conditions: αCD3/αCD28 Dynabeads stimulated cells, pSLP76 (Ser376) detection; read-out: HPK1 pSLP76 IC50
Sequence of HPK1 (SLP76 phosphorylation at Ser376 in Jurkat and EL-4 cells) (Q92918 whole entry, looked up): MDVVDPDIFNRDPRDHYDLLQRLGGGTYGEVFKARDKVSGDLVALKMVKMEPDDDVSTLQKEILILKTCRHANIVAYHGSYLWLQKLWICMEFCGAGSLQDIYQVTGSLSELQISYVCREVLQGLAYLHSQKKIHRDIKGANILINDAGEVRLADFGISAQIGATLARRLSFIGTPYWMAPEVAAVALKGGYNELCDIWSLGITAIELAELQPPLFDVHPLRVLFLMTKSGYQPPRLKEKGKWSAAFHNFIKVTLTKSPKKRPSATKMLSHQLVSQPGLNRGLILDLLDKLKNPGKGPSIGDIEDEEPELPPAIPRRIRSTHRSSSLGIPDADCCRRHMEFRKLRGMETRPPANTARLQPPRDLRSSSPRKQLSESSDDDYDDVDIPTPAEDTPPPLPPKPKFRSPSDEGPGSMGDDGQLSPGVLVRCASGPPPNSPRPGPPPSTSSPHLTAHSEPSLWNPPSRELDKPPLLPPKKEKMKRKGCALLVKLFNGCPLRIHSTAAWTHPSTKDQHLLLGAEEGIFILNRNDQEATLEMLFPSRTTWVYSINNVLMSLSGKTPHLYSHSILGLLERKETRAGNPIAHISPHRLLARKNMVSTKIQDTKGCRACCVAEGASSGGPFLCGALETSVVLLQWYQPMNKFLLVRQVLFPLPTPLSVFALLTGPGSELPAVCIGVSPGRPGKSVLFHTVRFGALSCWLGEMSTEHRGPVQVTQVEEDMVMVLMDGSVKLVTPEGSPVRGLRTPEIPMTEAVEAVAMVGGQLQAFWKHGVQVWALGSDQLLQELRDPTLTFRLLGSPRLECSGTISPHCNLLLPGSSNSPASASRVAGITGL
Method: Cellular Assay—Phospho-SLP-76 (Ser376).
Inhibition of HPK1 enzymatic activity in cells was determined by detection of SLP76 phosphorylation at Ser376 residue in lysate from Jurkat (human) and EL-4 (mouse) cells. Jurkat and EL-4 cells express both HPK1 and SLP76 naturally. All cells were cultured in RPMI 1640 media containing 10% heat inactivated fetal bovine serum (FBS) and 1×Penicillin-Streptomycin. In either Jurkat or El-4 assay, cells were pre-incubated with test compounds prior to T cell stimulation by respective αCD3/αCD28 Dynabeads™. For detection, plates were read on the Envision and percent inhibition and IC50 were determined by Smart fit in Genedata Analyzer.
For Jurkat cells: 35 μL cell suspension were dispensed at a density of 30,000 cells/well in 384-well plates containing HBSS (Gibco, 14025076)+0.1% BSA). 10-point logarithmic serial dilution of test compounds in DMSO were prepared by a Hamilton automated liquid handling robot and 35 nL was transferred into each well by an Echo liquid handler. After 60 min. pre-incubation, the cells were stimulated by adding 5 μL human T activator αCD3/αCD28 Dynabeads™ (Gibco, 11132D) at 1.2×107 beads/mL for 15 minutes at 37° C. Detection of Ser376 phosphorylation status was accomplished by first adding 10 μL of 5×AlphaLISA lysis buffer (Perkin Elmer, ALSU-PSLP-A500) to each well of the cell plate using a Multidrop Combi (5840300), followed by 20 minutes shaking. 10 μL cell lysate from each treatment were then transferred to a white 384-well plate (Corning 3572) and incubated with AlphaLISA acceptor beads for one hour (AlphaLISA SureFire Ultra p-SLP76(Ser376), Perkin Elmer, ALSU-PSLP-A500), and donor beads for additional 2 hours at room temperature in the dark.
For EL-4.IL2 assay, 50 μL cell suspension at 2×10^6 cells/mL in HBSS were first dispensed into 384-well plates and then 50 nL serial dilutions of test compounds were spotted to each well by an Echo liquid handler. After 60 min. incubation at 37° C., cells were stimulated by adding 5 μL mouse T cell activator αCD3/αCD28 Dynabeads™ (ThermFisher Scientific, 11452D) for 30 minutes at 37° C. After a brief spin and subsequent supernatant discarded, 12.5 μL of Cisbio lysis buffer were added to each well and plates were shaken for 30 min at 450 RPM. For detection, 4 μL prepared HTRF antibody mixture (Cisbio, 63ADK000U) in detection buffer were mixed with 16 μl of cell lysate and plates were incubated at room temperature for 19 hours prior to EnVision reading.

Sequence of full-length human HPK1 (MAP4K1) (Q92918 whole entry): as the sequence (Q92918 whole entry, looked up) above

Compound | IC50 [1] [nM] | IC50 [2] [nM]
Cc1c(N2CCc3cnc(Nc4ccc(NCCN5CCOCC5)c(F)c4)nc3C2)cnc2c1NCCO2 [Example 6, 2-fluoro-N4-(7-{8-methyl-1H,2H,3H-pyrido[2,3-b][1,4]oxazin-7-yl}-5H,6H,7H,8H-pyrido[3,4-d]pyrimidin-2-yl)-N1-[2-(morpholin-4-yl)ethyl]benzene-1,4-diamine] | < 100 | < 500
Cc1c(N2CCc3cnc(Nc4cc5n(n4)CC(=O)N(C(C)C)CC5)cc3C2)cnc2c1NCCO2 [Example 7, 2-[(6-{8-methyl-1H,2H,3H-pyrido[2,3-b][1,4]oxazin-7-yl}-5,6,7,8-tetrahydro-2,6-naphthyridin-3-yl)amino]-6-(propan-2-yl)-4H,5H,6H,7H,8H-pyrazolo[1,5-d][1,4]diazepin-7-one] | < 100 | < 500
Cc1cc(Nc2cc3c(cn2)CCN(c2cnc4c(c2C)NCCO4)C3)ccc1NC(=O)CN1CCC1 [Example 9, 2-(azetidin-1-yl)-N-{2-methyl-4-[(6-{8-methyl-1H,2H,3H-pyrido[2,3-b][1,4]oxazin-7-yl}-5,6,7,8-tetrahydro-2,6-naphthyridin-3-yl)amino]phenyl}acetamide] | < 100 | < 500
Cc1cc(Nc2ncc3c(n2)CN(c2cnc4c(c2C)NCCO4)CC3)ccc1NC(=O)CN1CCCC1 [Example 10, N-{2-methyl-4-[(7-{8-methyl-1H,2H,3H-pyrido[2,3-b][1,4]oxazin-7-yl}-5H,6H,7H,8H-pyrido[3,4-d]pyrimidin-2-yl)amino]phenyl}-2-(pyrrolidin-1-yl)acetamide] | < 100 | < 500
Cc1c(N2CCc3cnc(Nc4ccc(NC(=O)CN5CCOCC5)cc4)nc3C2)cnc2c1NCCO2 [Example 12, N-{4-[(7-{8-methyl-1H,2H,3H-pyrido[2,3-b][1,4]oxazin-7-yl}-5H,6H,7H,8H-pyrido[3,4-d]pyrimidin-2-yl)amino]phenyl}-2-(morpholin-4-yl)acetamide] | < 100 | < 500
Cc1c(N2CCc3cnc(Nc4ccc5c(c4)CNC5(C)C)nc3C2)cnc2c1NCCO2 [Example 13, 1,1-dimethyl-N-(7-{8-methyl-1H,2H,3H-pyrido[2,3-b][1,4]oxazin-7-yl}-5H,6H,7H,8H-pyrido[3,4-d]pyrimidin-2-yl)-2,3-dihydro-1H-isoindol-5-amine] | < 100 | < 500
Cc1cc(Nc2cc3c(cn2)CCN(c2cnc4c(c2C)NCCO4)C3)ccc1NCCN(C)C [Example 14, N1-[2-(dimethylamino)ethyl]-2-methyl-N4-(6-{8-methyl-1H,2H,3H-pyrido[2,3-b][1,4]oxazin-7-yl}-5,6,7,8-tetrahydro-2,6-naphthyridin-3-yl)benzene-1,4-diamine] | < 100 | < 500
Cc1cc(Nc2cc3c(cn2)CCN(c2cnc4c(c2C)NCCO4)C3)ccc1NCCN1CCOCC1 [Example 15, 2-methyl-N4-(6-{8-methyl-1H,2H,3H-pyrido[2,3-b][1,4]oxazin-7-yl}-5,6,7,8-tetrahydro-2,6-naphthyridin-3-yl)-N1-[2-(morpholin-4-yl)ethyl]benzene-1,4-diamine] | < 100 | 500 to 1000
COc1cccc(F)c1N1CCc2cnc(Nc3cnc4c(c3)CN(C)CC4)nc2C1 [Example 120, 7-(2-fluoro-6-methoxyphenyl)-N-(6-methyl-5,6,7,8-tetrahydro-1,6-naphthyridin-3-yl)-5,6,7,8-tetrahydropyrido[3,4-d]pyrimidin-2-amine] |  | > 1000
COCCS(=O)(=O)Cc1ccc(Nc2cc3c(cn2)CCN(c2cnc4c(c2C)NCCO4)C3)cc1 [Example 172, N-{4-[(2-methoxyethanesulfonyl)methyl]phenyl}-6-{8-methyl-1H,2H,3H-pyrido[2,3-b][1,4]oxazin-7-yl}-5,6,7,8-tetrahydro-2,6-naphthyridin-3-amine] | < 100 | 
Cc1cc(Nc2ncc3c(n2)CN(c2cnc4c(c2Cl)NCCO4)CC3)ccc1CS(C)(=O)=O [Example 177, 7-{8-chloro-1H,2H,3H-pyrido[2,3-b][1,4]oxazin-7-yl}-N-[4-(methanesulfonylmethyl)-3-methylphenyl]-5H,6H,7H,8H-pyrido[3,4-d]pyrimidin-2-amine] | < 100 | 

The remaining lines, values ahead:

IC50 [1] [nM] | IC50 [2] [nM] | Compound
< 100 | < 500 | Cc1c(N2CCc3cnc(Nc4ccc([C@H](C)S(C)(=O)=O)cc4)nc3C2)cnc2c1NCCO2 (single isomer, unassigned) [Example 157]
< 100 | < 500 | Cc1c(N2CCc3cnc(Nc4ccc([C@@H](C)S(C)(=O)=O)cc4)nc3C2)cnc2c1NCCO2 (single isomer, unassigned) [Example 158]
< 100 | < 500 | Cc1c(N2CCc3cnc(Nc4ccc([C@H]5CCCS5(=O)=O)cc4)cc3C2)cnc2c1NCCO2 (single isomer, unassigned) [Example 169]
< 100 | < 500 | Cc1c(N2CCc3cnc(Nc4ccc([C@@H]5CCCS5(=O)=O)cc4)cc3C2)cnc2c1NCCO2 (single isomer, unassigned) [Example 170]
< 100 | < 500 | Cc1c(N2CCc3cnc(Nc4ccc(NCCN(C)C)c(F)c4)nc3C2)cnc2c1NCCO2 [Example 1, N1-[2-(dimethylamino)ethyl]-2-fluoro-N4-(7-{8-methyl-1H,2H,3H-pyrido[2,3-b][1,4]oxazin-7-yl}-5H,6H,7H,8H-pyrido[3,4-d]pyrimidin-2-yl)benzene-1,4-diamine]
< 100 | < 500 | Cc1cc(Nc2cc3c(cn2)CCN(c2cnc4c(c2Cl)NCCO4)C3)ccc1NC(=O)CN1CCC1 [Example 2, 2-(azetidin-1-yl)-N-{4-[(6-{8-chloro-1H,2H,3H-pyrido[2,3-b][1,4]oxazin-7-yl}-5,6,7,8-tetrahydro-2,6-naphthyridin-3-yl)amino]-2-methylphenyl}acetamide]
< 100 | < 500 | Cc1cc(Nc2ncc3c(n2)CN(c2cnc4c(c2C)NCCO4)CC3)ccc1NC(=O)CN1CCC1 [Example 3, 2-(azetidin-1-yl)-N-{2-methyl-4-[(7-{8-methyl-1H,2H,3H-pyrido[2,3-b][1,4]oxazin-7-yl}-5H,6H,7H,8H-pyrido[3,4-d]pyrimidin-2-yl)amino]phenyl}acetamide]
< 100 | < 500 | Cc1c(N2CCc3cnc(Nc4ccc(NCCN5CCOCC5)c(F)c4)cc3C2)cnc2c1NCCO2 [Example 4, 2-fluoro-N4-(6-{8-methyl-1H,2H,3H-pyrido[2,3-b][1,4]oxazin-7-yl}-5,6,7,8-tetrahydro-2,6-naphthyridin-3-yl)-N1-[2-(morpholin-4-yl)ethyl]benzene-1,4-diamine]
< 100 | > 1000 | Cc1c(N2CCc3cnc(Nc4cnc(CS(C)(=O)=O)c(Cl)c4)nc3C2)cnc2c1NCCO2 [Example 5, 5-chloro-6-(methanesulfonylmethyl)-N-(7-{8-methyl-1H,2H,3H-pyrido[2,3-b][1,4]oxazin-7-yl}-5H,6H,7H,8H-pyrido[3,4-d]pyrimidin-2-yl)pyridin-3-amine]

Reference: US20240025922A1, “TETRAHYDROPYRIDO[3,4-d]PYRIMIDINES AS HPK1 INHIBITORS” (Merck Patent GmbH, priority 2022, published 2024)
